Reference: paper PMC5004176, “The antifungal plant defensin AtPDF2.3 from Arabidopsis thaliana blocks potassium channels” (Scientific Reports, 2016)
Ends that are not written are not given here.

Experiments:
[1] = system: Saccharomyces cerevisiae BY4741 ∆qdr2; test: Yeast growth inhibitory assay; assay type: cell-based; conditions: BY4741 ∆qdr2, MM medium, 24 hours, OD490nm, mean ± SEM, n ≥ 3; read-out: IC50 (growth inhibition)
[2] = system: Kv4.2; test: Two-electrode voltage-clamp on Kv4.2 expressed in X. laevis oocytes; conditions: 3 μM, n ≥ 3
Protocol: (§1) For the expression of the voltage-gated potassium channels (rKv1.1, rKv1.2, hKv1.3, rKv1.4, rKv1.5, rKv1.6, Shaker IR, hKv3.1, rKv4.3, and hERG) in Xenopus laevis oocytes, the linearized plasmids were transcribed using the T7 or SP6 mMESSAGE-mMACHINE transcription kit (Ambion). The harvesting of stage V–VI oocytes from an anaesthetized female X. laevis frog was previously described[59]. Oocytes were injected with 50 nL of cRNA at a concentration of 1 ng/nL using a micro-injector (Drummond Scientific, USA). The oocytes were incubated in a solution containing (in mM): NaCl, 96; KCl, 2; CaCl2, 1.8; MgCl2, 2 and HEPES, 5 (pH 7.4), supplemented with 50 mg/L gentamycin sulfate.
(§2) Two-electrode voltage-clamp recordings were performed at room temperature (18–22 °C) using a Geneclamp 500 amplifier (Molecular Devices, USA) controlled by a pClamp data acquisition system (Axon Instruments, USA). Whole cell currents from oocytes were recorded 1–4 days after injection. Bath solution composition was ND96 (in mM): NaCl, 96; KCl, 2; CaCl2, 1.8; MgCl2, 2 and HEPES, 5 (pH 7.4) or HK (in mM): NaCl, 2; KCl, 96; CaCl2, 1.8; MgCl2, 2 and HEPES, 5 (pH 7.4). Voltage and current electrodes were filled with 3 M KCl. Resistances of both electrodes were kept between 0.7 and 1.5 MΩ. […] GV curves were calculated from IV relationships as follows: gK = IK/(Em−EK) with EK = (RT/zF)ln[K #0]o/[K #0]i. […]

[3] = system: Saccharomyces cerevisiae BY4741 ∆tok1; test: Yeast growth inhibitory assay; assay type: cell-based; conditions: BY4741 ∆tok1, MM medium, 24 hours, OD490nm, mean ± SEM, n ≥ 3; read-out: IC50 (growth inhibition)
[4] = system: Kv1.1; test: Two-electrode voltage-clamp on Kv1.1 expressed in X. laevis oocytes; conditions: 3 μM, n ≥ 3
Protocol: as §1, §2

[5] = system: plant pathogenic fungi; test: Fungal growth inhibitory assay, whole panel; assay type: cell-based; conditions: range over the fungal panel of Table 1, 48 hours; read-out: IC50 values against all plant pathogenic fungi tested (range)
[6] = system: Saccharomyces cerevisiae BY4741 ∆arl1; test: Yeast growth inhibitory assay; assay type: cell-based; conditions: BY4741 ∆arl1, MM medium, 24 hours, OD490nm, mean ± SEM, n ≥ 3; read-out: IC50 (growth inhibition)
[7] = system: Saccharomyces cerevisiae BY4741 ∆trk2; test: Yeast growth inhibitory assay; assay type: cell-based; conditions: BY4741 ∆trk2, MM medium, 24 hours, OD490nm, mean ± SEM, n ≥ 3; read-out: IC50 (growth inhibition)
[8] = system: HepG2 cells; assay type: cell-based; conditions: up to 25 μM, 24 hours, XTT, relative to untreated, at least two experiments in quadruplicate
Protocol: HepG2 cells were seeded at 10.000 cells/well in 96-well plates and incubated for 24 hours. Subsequently, cells were treated either with water (untreated) or rAtPDF2.3 (0.01 μM–23.5 μM) for 24 hours after which cell viability was determined using the ‘Cell Proliferation Kit II (XTT) as described previously. ANOVA followed by Dunnett post hoc test was performed to analyze statistically significant differences between untreated and rAtPDF2.3-treated samples.
Supplementary Figure S4 Activity of rAtPDF2.3 on HepG2 cell viability. HepG2 cells were treated either with water (untreated) or rAtPDF2.3 (0.01 µM – 24.3 µM) for 24 hours, after which cell viability was determined by XTT staining. Results are expressed relative to the untreated samples. Mean ± standard error of at least two experiments in quadruplicate is shown. ANOVA followed by Dunnet post hoc test performed to analyze statistically significant differences between untreated and rAtPDF2.3-treated samples; * represents P = 0.03.
(1 picture or pasted object on this page, not shown here)

[9] = system: Verticillium dahliae; test: Fungal growth inhibitory assay; assay type: cell-based; conditions: half strength PDB, 10^4 spores/mL, 48 hours, determined microscopically, n ≥ 3; read-out: IC50 (growth inhibition)
[10] = system: Saccharomyces cerevisiae BY4741 ∆nha1; test: Yeast growth inhibitory assay; assay type: cell-based; conditions: BY4741 ∆nha1, MM medium, 24 hours, OD490nm, mean ± SEM, n ≥ 3; read-out: IC50 (growth inhibition)
[11] = system: Kv1.5; test: Two-electrode voltage-clamp on Kv1.5 expressed in X. laevis oocytes; conditions: 3 μM, n ≥ 3
Protocol: as §1, §2

[12] = system: Saccharomyces cerevisiae BY4741 ∆vhc1; test: Yeast growth inhibitory assay; assay type: cell-based; conditions: BY4741 ∆vhc1, MM medium, 24 hours, OD490nm, mean ± SEM, n ≥ 3; read-out: IC50 (growth inhibition)
[13] = system: Kv1.6 channels; test: Two-electrode voltage-clamp on Kv1.6 expressed in X. laevis oocytes; conditions: n ≥ 3
Protocol: as §1
(§3) Two-electrode voltage-clamp recordings were performed at room temperature (18–22 °C) using a Geneclamp 500 amplifier (Molecular Devices, USA) controlled by a pClamp data acquisition system (Axon Instruments, USA). Whole cell currents from oocytes were recorded 1–4 days after injection. Bath solution composition was ND96 (in mM): NaCl, 96; KCl, 2; CaCl2, 1.8; MgCl2, 2 and HEPES, 5 (pH 7.4) or HK (in mM): NaCl, 2; KCl, 96; CaCl2, 1.8; MgCl2, 2 and HEPES, 5 (pH 7.4). Voltage and current electrodes were filled with 3 M KCl. Resistances of both electrodes were kept between 0.7 and 1.5 MΩ. The elicited currents were filtered at 0.5 kHz and sampled at 2 kHz (for potassium currents) or filtered at 2 kHz and sampled at 20 kHz (for sodium currents) using a four-pole low-pass Bessel filter. Leak subtraction was performed using a -P/4 protocol. Kv1.1–Kv1.6 and Shaker currents were evoked by 250 ms depolarizations to 0 mV followed by a 250 ms pulse to −50 mV, from a holding potential of −90 mV. Current traces of hERG channels were elicited by applying a +40 mV prepulse for 2 s followed by a step to −120 mV for 2 s. […] In order to investigate the current–voltage relationship, current traces were evoked by 10 mV depolarization steps from a holding potential of −90 mV. To assess the concentration dependency of the toxin induced inhibitory effects, a concentration–response curve was constructed, in which the percentage of current inhibition was plotted as a function of toxin concentration. Data were fitted with the Hill equation: y = 100/[1 + (IC50/[toxin])^h], were y is the amplitude of the toxin-induced effect, IC50 is the toxin concentration at half-maximal efficacy, [toxin] is the toxin concentration, and h is the Hill coefficient. GV curves were calculated from IV relationships as follows: gK = IK/(Em−EK) with EK = (RT/zF)ln[K #0]o/[K #0]i. In these equations gK represents the conductance, IK the potassium current, Em the membrane potential, EK the reversal potential, R the gas constant (8.31 J/K mol), T the temperature, z the charge of the ion (for K+ ions: z = 1), F the Faraday’s constant (96.500 C/mol), [K #0]o and [K #0]i respectively are the extracellular and intracellular K+ ion concentrations. The values of IK or gK were plotted as function of voltage and fitted using the Boltzmann equation: gK/gmax = [1 + exp(Vg−V)/k]−1, were gmax represents maximal gK, Vg is the voltage corresponding to half-maximal conductance, and k is the slope factor. Comparison of two sample means was made using a paired Student’s t test (P < 0.05). All data represent at least three independent experiments (n ≥ 3) and are presented as mean ± standard error.

[14] = system: Fusarium graminearum PH-1; assay type: cell-based; conditions: read-out: IC50 (growth inhibition)
[15] = system: Saccharomyces cerevisiae BY4741 ∆kch1; test: Yeast growth inhibitory assay; assay type: cell-based; conditions: BY4741 ∆kch1, MM medium, 24 hours, OD490nm, mean ± SEM, n ≥ 3; read-out: IC50 (growth inhibition)
[16] = system: Fusarium culmorum; test: Fungal growth inhibitory assay; assay type: cell-based; conditions: half strength PDB, 10^4 spores/mL, 48 hours, determined microscopically, n ≥ 3; read-out: IC50 (growth inhibition)
[17] = system: Saccharomyces cerevisiae BY4741 ∆sat4; test: Yeast growth inhibitory assay; assay type: cell-based; conditions: BY4741 ∆sat4, MM medium, 24 hours, OD490nm, mean ± SEM, n ≥ 3; read-out: IC50 (growth inhibition)
[18] = system: Saccharomyces cerevisiae BY4741 WT; test: Yeast growth inhibitory assay; assay type: cell-based; conditions: MM medium, ~10^6 cells/mL, 24 hours, OD490nm, mean ± SEM, n ≥ 3, read-out: IC50 (growth inhibition)
[19] = system: Kv1.3; test: Two-electrode voltage-clamp on Kv1.3 expressed in X. laevis oocytes; conditions: 3 μM, n ≥ 3
Protocol: as §1, §2

[20] = system: Kv1.4; test: Two-electrode voltage-clamp on Kv1.4 expressed in X. laevis oocytes; conditions: 3 μM, n ≥ 3
Protocol: as §1, §2

[21] = system: Saccharomyces cerevisiae BY4741 ∆ppz1; test: Yeast growth inhibitory assay; assay type: cell-based; conditions: BY4741 ∆ppz1, MM medium, 24 hours, OD490nm, mean ± SEM, n ≥ 3; read-out: IC50 (growth inhibition)
[22] = system: Shaker IR; test: Two-electrode voltage-clamp on Shaker IR expressed in X. laevis oocytes; conditions: 3 μM, n ≥ 3
Protocol: as §1, §2

[23] = system: Saccharomyces cerevisiae BY4741 ∆prm6; test: Yeast growth inhibitory assay; assay type: cell-based; conditions: BY4741 ∆prm6, MM medium, 24 hours, OD490nm, mean ± SEM, n ≥ 3; read-out: IC50 (growth inhibition)
[24] = system: Kv1.2 channels; test: Two-electrode voltage-clamp on Kv1.2 expressed in X. laevis oocytes; conditions: for inhibition of the potassium current: Kv1.2, n ≥ 5
Protocol: as §1, §3

[25] = system: Nav1.5; test: Two-electrode voltage-clamp on Nav1.5 expressed in X. laevis oocytes; assay type: cell-based; conditions: 5 μM, n ≥ 4

Q: How did the IC50 [1] turn out when “rAtPDF2.3: Arabidopsis thaliana plant defensin AtPDF2.3 produced recombinantly in Pichia pastoris (RTCESKSHRFKGPCVSTHNCANVCHNEGFGGGKCRGFRRRCYCTRHC; ends and bridges not checked; cysteine pairing not given here)” was run?
A: Its IC50 is 2.9 ± 0.2 µM.

Q: And the “activity on Kv4.2 (Shal) at single concentration” value [2]?
A: Its value is “no effect”.

Q: And the IC50 [3]?
A: Its IC50 is 7.7 ± 0.5 µM.

Q: What about the “activity on Kv1.1 at single concentration” value [4] of the same substance?
A: The value was “no effect”.

Q: What about the IC50 [5] of the same substance?
A: Its IC50 is 1 to 5.8 µM.

Q: What about the IC50 [6] of the same substance?
A: The IC50 was 5.7 ± 0.2 µM.

Q: What about the IC50 [7] of the same substance?
A: The IC50 was 7 ± 0.6 µM.

Q: What about the “cell viability in HepG2 cells” value [8] of the same substance?
A: Its value is “does not reduce cell viability”.

Q: And the IC50 [9]?
A: The IC50 was 4.4 ± 1.6 µM.

Q: And the IC50 [10]?
A: Its IC50 is 9.1 ± 0.7 µM.

Q: And the “activity on Kv1.5 at single concentration” value [11]?
A: Its value is “no effect”.

Q: What about the IC50 [12] of the same substance?
A: The IC50 was 8 ± 0.2 µM.

Q: What about the “activity on Kv1.6 at single concentration” value ([13]; 3 μM) of the same substance?
A: Its value is “can block”.

Q: And the IC50 ([13]; read-out: IC50 for Kv1.6, two-electrode voltage-clamp, X. laevis oocytes, concentration-response curve fitted with Hill equation, mean ± standard error)?
A: The IC50 was 0.978 ± 0.113 µM.

Q: What about the IC50 [14] of the same substance?
A: Its IC50 is 1.4 µM.

Q: And the IC50 [15]?
A: The IC50 was 8.9 ± 0.3 µM.

Q: And the IC50 [16]?
A: Its IC50 is 1 ± 0.4 µM.

Q: And the IC50 [17]?
A: The IC50 was 5.1 ± 0.1 µM.

Q: What about the IC50 [18] of the same substance?
A: The IC50 was 8.1 ± 0.9 µM.

Q: And the “activity on Kv1.3 at single concentration” value [19]?
A: The value was “no effect”.

Q: And the “activity on Kv1.4 at single concentration” value [20]?
A: The value was “no effect”.

Q: What about the IC50 [21] of the same substance?
A: Its IC50 is 10.1 ± 0.5 µM.

Q: What about the “activity on Shaker IR at single concentration” value [22] of the same substance?
A: Its value is “no effect”.

Q: What about the IC50 [23] of the same substance?
A: The IC50 was 7.6 ± 0.2 µM.

Q: And the “inhibition of the potassium current” value ([24]; 2 μM, HK solution)?
A: Its value is 66 ± 4%.

Q: And the “inhibition of the potassium current” value ([24]; 2 μM, ND96 solution)?
A: Its value is 59 ± 3%.

Q: What about the “activity on Kv1.2 at single concentration” value ([24]; 3 μM, n ≥ 3) of the same substance?
A: The value was “can block”.

Q: And the “reversal potential EK after application of defensin” value ([24]; HK solution, 2 μM, Kv1.2, control −4 ± 1 mV, P > 0.05, n ≥ 4)?
A: The value was −2 ± 1 mV.

Q: What about the “V1/2 of gV curve in the presence of defensin” value ([24]; ND96, 2 μM, Kv1.2, control 8 ± 3 mV, n ≤ 4 as printed) of the same substance?
A: Its value is 5 ± 2 mV.

Q: And the “reversibility of Kv1.2 block upon washout” value ([24]; current recovers quickly and completely upon washout (data not shown))?
A: The value was “blocking is reversible”.

Q: What about the IC50 ([24]; read-out: IC50 for Kv1.2, two-electrode voltage-clamp, X. laevis oocytes, concentration-response curve fitted with Hill equation, mean ± standard error, n ≥ 3) of the same substance?
A: Its IC50 is 1.3 ± 0.2 µM.

Q: What about the “voltage dependence of inhibition of Kv1.2 channels” value ([24]; test potentials from −30 to +30 mV) of the same substance?
A: The value was “not voltage-dependent”.

Q: What about the “activity on Nav1.5” value [25] of the same substance?
A: The value was “does not show activity”.
